{"source": "paper PMC4585029", "about": "“Agonist and antagonist effects of tobacco-related nitrosamines on human α4β2 nicotinic acetylcholine receptors” (Frontiers in Pharmacology, 2015)", "key": {"(α7)5 nAChR": {"system": "(α7)5 nAChR", "set-up": "method as in Dani and Bertrand, [2007]", "conditions": "homopentameric receptors such as (α7)5; ref Dani and Bertrand, [2007]; cited from earlier work"}, "human α4β2 nAChRs": {"biological_target": "T1, human α4β2 nAChRs (Homo sapiens, UniProt P17787+P43681)", "T1 construct": "expressed in transfected cells", "T1 sequence (P43681 29-627 limits assumed)": "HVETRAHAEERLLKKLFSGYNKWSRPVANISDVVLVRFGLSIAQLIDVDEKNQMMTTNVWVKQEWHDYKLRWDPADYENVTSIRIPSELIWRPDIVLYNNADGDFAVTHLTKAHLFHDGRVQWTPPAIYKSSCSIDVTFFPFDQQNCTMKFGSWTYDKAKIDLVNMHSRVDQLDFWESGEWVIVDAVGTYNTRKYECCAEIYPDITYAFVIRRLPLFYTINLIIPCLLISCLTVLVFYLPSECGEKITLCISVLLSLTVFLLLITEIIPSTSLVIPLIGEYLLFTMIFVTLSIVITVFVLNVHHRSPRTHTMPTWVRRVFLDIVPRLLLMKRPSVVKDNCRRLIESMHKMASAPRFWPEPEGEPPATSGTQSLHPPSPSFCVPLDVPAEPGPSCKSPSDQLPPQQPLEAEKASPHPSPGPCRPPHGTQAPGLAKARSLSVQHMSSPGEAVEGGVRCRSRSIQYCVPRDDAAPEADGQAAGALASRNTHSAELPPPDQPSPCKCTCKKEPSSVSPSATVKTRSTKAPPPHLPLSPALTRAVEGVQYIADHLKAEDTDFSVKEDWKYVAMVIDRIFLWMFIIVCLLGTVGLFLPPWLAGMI", "T1 sequence (P17787 26-502)": "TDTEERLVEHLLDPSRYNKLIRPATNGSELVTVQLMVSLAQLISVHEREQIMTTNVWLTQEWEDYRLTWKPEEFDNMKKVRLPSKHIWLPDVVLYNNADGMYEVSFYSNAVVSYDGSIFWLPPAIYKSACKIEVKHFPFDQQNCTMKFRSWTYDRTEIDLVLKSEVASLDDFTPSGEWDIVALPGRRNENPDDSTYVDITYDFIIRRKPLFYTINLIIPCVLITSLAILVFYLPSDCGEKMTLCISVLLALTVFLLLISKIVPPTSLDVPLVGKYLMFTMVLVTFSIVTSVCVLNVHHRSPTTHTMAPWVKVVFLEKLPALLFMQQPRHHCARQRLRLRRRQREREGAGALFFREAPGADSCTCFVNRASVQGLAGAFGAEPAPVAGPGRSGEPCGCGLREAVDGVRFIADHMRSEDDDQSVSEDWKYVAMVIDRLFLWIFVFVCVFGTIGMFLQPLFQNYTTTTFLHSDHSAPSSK", "test": "cell-based", "type": "cell-based", "conditions": "for voltage dependence of the fractional block at the steady state: NNN 10 μM with 10 μM nicotine, NNK 1 μM with 100 nM nicotine, different Vm; for Imax/Inico: maximal current relative to nicotine, whole-cell; for functional behaviour on α4β2 nAChRs: patch-clamp", "method": "HEK 293 cells stably expressing human α4β2 nAChRs were cultured by standard methods (Di Resta et al., [2010]). In brief, cultures were maintained in Dulbecco's modified Eagle's medium (Hyclone Laboratories), supplemented with 10% fetal calf serum (Hyclone), 4.5 g/l glutamine, […] hygromycin β, and 0.25 μg/ml amphoterycin B. Cells were grown at 37°C and 5% CO2. For patch-clamp experiments, cells were harvested by treatment with trypsin and plated onto 35 mm Petri dishes (Corning Inc.).\nCells were voltage-clamped by using the whole-cell configuration of the patch-clamp method. Currents were registered with an Axopatch 200B amplifier (Molecular Devices), at room temperature (20–22°C). Micropipettes (3–4 MΩ) were pulled from borosilicate capillaries (GMBH) with a P-97 Flaming/Brown Micropipette Puller (Sutter Instrument Co.). The cell capacitance and series resistance (up to about 75%) were always compensated. Currents were low-pass filtered at 2 kHz and acquired on-line at 5–10 kHz with Molecular Devices hardware and software (pClamp 8 and Axoscope 8). After patch rupture, we usually allowed 1–2 min for pipette solution exchange and signal stabilization, before applying our stimuli. Extracellular solutions were applied with an RSC-160 Rapid Solution Changer (BioLogic Science Instruments). The solution is delivered to the cells through borosilicate capillaries connected to Tygon tubes. Seven independent lines are available. […] The perfusing line was totally substituted whenever the drug was changed.\nUnless otherwise indicated, chemicals, and drugs were purchased by Sigma-Aldrich Italia Srl. The extracellular solution contained (mM): NaCl 130, KCl 5, CaCl2 2, MgCl2 2, HEPES 10, D-glucose 5 (pH 7.4; adjusted with NaOH). Pipettes contained (mM): K-aspartate 120, NaCl 10, MgCl2 2, CaCl21.3, EGTA-KOH 10, HEPES 10, MgATP 1, (pH 7.3; adjusted with KOH). […] NNK and NNN (20 mM) were dissolved in water and kept refrigerated for no longer than 1 week. […] The final concentrations were obtained by serial dilution.\nData were analyzed with Clampfit 9.2 (Molecular Devices) and OriginPro 9 (OriginLab Co.). Theoretical curves best fitting the data were determined by a nonlinear least-squares method (Levenberg-Marquardt algorithm). For nAChR activation we used both a simple Hill function and the sum of two Hill expressions (Covernton and Connolly, [2000]). The single-term expression was:\nThe two-terms Hill expression was:\n(2) IL/Imax=A/(1+EC50high/[L])^nH1+1-A/(1+EC50low/[L])^nH2\nwhere A is the fraction of receptors in the high-affinity state; EC50high and EC50low are the EC50 values of the components at high and low affinity, respectively; nH1 and nH2 are the corresponding Hill coefficients, and the other symbols are as in Equation (1).\nThe function used to fit the desensitization data points (Figure 3) was:\n(3) ISS/Ipeak=B+1-B/(1+[L]/IC50)^nH\nISS was found by fitting the current decay with a single exponential function and taking the steady state value of this function. A similar function was used to fit the fractional inhibition in Figures 4B, 5B.\n(4) y=αNic[Nic]/EC50+αNNK[NNK]/EC50(NNK)/1+[Nic]/EC50+[NNK]/EC50(NNK)"}, "[1]": {"system": "epibatidine-sensitive nAChRs", "set-up": "method as in Schuller, [2007]", "conditions": "SCLC cells, ref Schuller, [2007], read-out: EC50 measured in binding studies; cited from earlier work"}, "[2]": {"conditions": "cited from earlier work"}, "α3β4 nAChR": {"system": "α3β4 nAChR", "set-up": "method as in Nunes-Alves et al., [2012]", "conditions": "in the presence of 100 μM nicotine; ref Nunes-Alves et al., [2012]; cited from earlier work"}, "muscle subtype nAChR": {"system": "muscle subtype nAChR", "set-up": "method as in Nunes-Alves et al., [2012]", "conditions": "ref Nunes-Alves et al., [2012]; cited from earlier work"}, "[3]": {"conditions": "two-terms Hill fit (Equation 2)"}}, "note": "“Also recorded” adds a separate entry of the source. Read-outs that look alike come from different tables or passages of the source.", "data": [{"smiles": "CC(=O)OCC[N+](C)(C)C", "note": "[ACh]", "values": [{"measurement": "EC50", "setting": "(α7)5 nAChR", "value": "[…]"}]}, {"smiles": "CN(CCCC(=O)c1cccnc1)N=O", "note": "[NNK, 4-(methylnitrosamine)-1-(3-pyridyl)-1-butanone]", "values": [{"measurement": "peak current", "setting": "human α4β2 nAChRs; 10 nM nicotine plus 1 μM NNK, n = 11", "value": "160 ± 30", "unit": "pA"}, {"measurement": "average current", "setting": "human α4β2 nAChRs; 100 nM nicotine plus 100 μM NNK, n = 8", "value": "159.1 ± 25.1", "unit": "pA"}, {"measurement": "potentiation of the current activated by nicotine", "setting": "human α4β2 nAChRs; 1 μM NNK on 0.01 μM nicotine", "value": 26, "unit": "%"}, {"measurement": "concentration of nicotine at which NNK reversed its effect", "setting": "human α4β2 nAChRs; 1 μM NNK, estimated by fit with Equation 4", "value": "around 20 nM"}, {"measurement": "average peak current density", "setting": "human α4β2 nAChRs; 10 μM NNK alone, −80 mV, n = 9", "value": "5.75 ± 1.22", "unit": "pA/pF"}, {"measurement": "concentration of nicotine at which sign reversal of NNK effect occurs", "setting": "human α4β2 nAChRs; 100 μM NNK", "value": "approximately 400 nM"}, {"measurement": "potentiation of the current activated by nicotine", "setting": "human α4β2 nAChRs; 100 μM NNK on 100 nM (0.1 μM) nicotine, −80 mV", "value": "approximately 80%"}, {"measurement": "measured peak current relative to the value in the presence of 300 μM nicotine", "setting": "human α4β2 nAChRs; 100 μM NNK, −80 mV, n = 13", "value": "0.14 ± 0.02"}, {"measurement": "nH of desensitization curve", "setting": "human α4β2 nAChRs; Equation 3", "value": 0.9}, {"measurement": "inhibition at 100 µM", "setting": "human α4β2 nAChRs; HEK293, read-out: inhibition of the current elicited by nicotine", "value": 40, "unit": "%"}, {"measurement": "nicotine concentrations whose currents are potentiated by co-applied NNK", "setting": "human α4β2 nAChRs; NNK co-applied with nicotine", "value": "≤ 100", "unit": "nM"}, {"measurement": "effect on the currents activated by 10 μM nicotine", "setting": "human α4β2 nAChRs; NNK concentrations up to 100 nM", "value": "no effect"}, {"measurement": "voltage dependence of the fractional block at the steady state", "setting": "human α4β2 nAChRs", "value": "independent of the applied Vm"}, {"measurement": "nH, Hill coefficient of single-term Hill fit (Equation 1)", "setting": "human α4β2 nAChRs; activation by agonist alone, −80 mV", "value": 0.44}, {"measurement": "nH of inhibition curve", "setting": "human α4β2 nAChRs; currents activated by 10 μM nicotine, Equation 3", "value": 0.95}, {"measurement": "fit parameters αNIC / αNNK of Equation 4", "setting": "human α4β2 nAChRs; fit of data with 1 μM NNK plus nicotine (Figure 5C)", "value": 5, "unit": "µM"}, {"measurement": "estimated maximal current activated by NNK, % of the current elicited by 300 μM nicotine", "setting": "human α4β2 nAChRs; from Equation 1 fit, −80 mV", "value": "approximately 16%"}, {"measurement": "Imax/Inico", "setting": "human α4β2 nAChRs; −80 mV", "value": 0.16}, {"measurement": "functional behaviour on α4β2 nAChRs", "setting": "human α4β2 nAChRs", "value": "partial agonist"}, {"measurement": "IC50", "setting": "human α4β2 nAChRs; read-out: Desensitization IC50, fractional steady state current ISS/Ipeak vs agonist concentration, Equation 3", "value": 1.7, "unit": "µM"}, {"measurement": "EC50", "setting": "human α4β2 nAChRs; read-out: EC50 (single-term Hill, Equation 1), peak whole-cell currents at −80 mV, activation by agonist alone", "value": 16.7, "unit": "µM"}, {"measurement": "EC50", "setting": "human α4β2 nAChRs; read-out: EC50high, high-affinity component, two-terms Hill fit (Equation 2)", "value": 0.035, "unit": "µM"}, {"measurement": "EC50", "setting": "human α4β2 nAChRs; read-out: EC50low, low-affinity component, two-terms Hill fit (Equation 2)", "value": 12.8, "unit": "µM"}, {"measurement": "IC50", "setting": "human α4β2 nAChRs; read-out: Inhibition IC50, with 10 μM nicotine, steady state fractional current, −80 mV", "value": "> 100", "unit": "µM"}, {"measurement": "Hill coefficient of the high-affinity component (nH1 in Table 1)", "setting": "human α4β2 nAChRs; [3]", "value": 1.2}, {"measurement": "Hill coefficient of the low-affinity component (nH2 in Table 1)", "setting": "human α4β2 nAChRs; [3]", "value": 1.4}, {"measurement": "NNK concentrations that elicited inward currents", "setting": "human α4β2 nAChRs; −80 mV, NNK alone", "value": "higher than 10 nM"}, {"measurement": "EC50", "setting": "[1]", "value": "~17", "unit": "µM"}]}, {"smiles": "O=NN1CCC[C@H]1c1cccnc1", "note": "[NNN, N'-nitrosonornicotine]", "values": [{"measurement": "concentrations normally encountered in smokers' plasma", "setting": "[2]; ref Schuller, [2007]", "value": "< 0.1", "unit": "nM"}, {"measurement": "voltage dependence of the fractional block at the steady state", "setting": "human α4β2 nAChRs", "value": "independent of the applied Vm"}, {"measurement": "Imax/Inico", "setting": "human α4β2 nAChRs; −80 mV", "value": 0}, {"measurement": "functional behaviour on α4β2 nAChRs", "setting": "human α4β2 nAChRs", "value": "pure inhibitor"}, {"measurement": "IC50", "setting": "human α4β2 nAChRs; read-out: Inhibition IC50", "value": "~0.001", "unit": "µM"}, {"measurement": "IC50", "setting": "human α4β2 nAChRs; with 10 μM nicotine, steady state fractional current, −80 mV, read-out: Inhibition IC50", "value": 0.00021, "unit": "µM"}, {"measurement": "nAChR activation (whole-cell current) by the compound alone", "setting": "human α4β2 nAChRs; −80 mV, NNN 10 μM and up to 100 μM", "value": "never produced nAChR activation; also recorded: did not elicit any whole-cell current"}, {"measurement": "IC50", "setting": "α3β4 nAChR", "value": 1140, "unit": "µM"}, {"measurement": "effect on the muscle subtype", "setting": "muscle subtype nAChR", "value": "little effect"}]}, {"smiles": "CN1CCC[C@H]1c1cccnc1", "note": "[Nicotine, nicotine, reference compound]", "values": [{"measurement": "plasma nicotine concentration immediately after smoking", "setting": "[2]; smokers, ref Schaal and Chellappan, [2014]", "value": "[…]"}, {"measurement": "average current", "setting": "human α4β2 nAChRs", "value": "89.4 ± 19.4", "unit": "pA"}, {"measurement": "nH of nicotine alone (Figure 4C)", "setting": "human α4β2 nAChRs", "value": 0.83}, {"measurement": "nH of nicotine in the presence of 1 nM NNN", "setting": "human α4β2 nAChRs", "value": 0.92}, {"measurement": "nH of nicotine in the presence of 1 μM NNN", "setting": "human α4β2 nAChRs", "value": 1}, {"measurement": "peak current", "setting": "human α4β2 nAChRs", "value": "119 ± 24", "unit": "pA"}, {"measurement": "EC50", "setting": "(α7)5 nAChR", "value": "[…]"}]}]}
